From publication PMC6391970, “Design, Synthesis and Characterization of Covalent KDM5 Inhibitors” (Angewandte Chemie (International Ed. in English), 2018)

Legend:
KDM4B = target: T1, KDM4B (Homo sapiens, UniProt O94953); experiment: KDM AlphaScreen selectivity panel, KDM4B; format: biochemical; details: for IC50: AlphaScreen after 120 min pre-incubation, read-out: KDM IC50 4B; for SI over KDM5B, 4B: KDM4B IC50/KDM5B IC50
T1 sequence (O94953 1-1096): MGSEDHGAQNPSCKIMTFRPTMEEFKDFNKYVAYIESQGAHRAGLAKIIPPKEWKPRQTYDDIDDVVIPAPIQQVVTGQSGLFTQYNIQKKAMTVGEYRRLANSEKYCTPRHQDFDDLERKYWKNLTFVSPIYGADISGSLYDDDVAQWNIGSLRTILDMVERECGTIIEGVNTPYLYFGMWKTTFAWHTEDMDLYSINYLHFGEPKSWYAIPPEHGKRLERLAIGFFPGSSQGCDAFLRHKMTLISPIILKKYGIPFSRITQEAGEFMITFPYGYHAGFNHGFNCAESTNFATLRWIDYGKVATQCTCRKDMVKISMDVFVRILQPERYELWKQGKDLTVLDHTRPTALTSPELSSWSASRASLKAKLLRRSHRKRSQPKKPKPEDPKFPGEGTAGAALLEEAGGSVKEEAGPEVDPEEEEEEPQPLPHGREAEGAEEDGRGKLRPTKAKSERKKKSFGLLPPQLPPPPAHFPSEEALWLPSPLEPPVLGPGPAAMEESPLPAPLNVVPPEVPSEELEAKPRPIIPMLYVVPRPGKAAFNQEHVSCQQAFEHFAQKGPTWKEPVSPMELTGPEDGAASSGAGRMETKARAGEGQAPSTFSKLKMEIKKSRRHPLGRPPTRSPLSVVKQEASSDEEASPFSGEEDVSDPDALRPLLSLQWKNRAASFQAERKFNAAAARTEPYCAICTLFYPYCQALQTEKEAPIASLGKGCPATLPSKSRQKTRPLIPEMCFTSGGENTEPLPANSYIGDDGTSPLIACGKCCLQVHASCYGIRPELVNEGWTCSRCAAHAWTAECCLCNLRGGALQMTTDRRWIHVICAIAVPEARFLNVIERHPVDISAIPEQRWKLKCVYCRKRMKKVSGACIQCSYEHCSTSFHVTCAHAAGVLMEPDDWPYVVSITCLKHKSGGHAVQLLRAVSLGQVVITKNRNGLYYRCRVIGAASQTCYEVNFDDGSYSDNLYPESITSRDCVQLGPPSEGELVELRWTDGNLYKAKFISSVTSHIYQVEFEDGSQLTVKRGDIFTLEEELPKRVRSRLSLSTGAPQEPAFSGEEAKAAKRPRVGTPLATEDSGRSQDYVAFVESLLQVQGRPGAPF
Description: (§1) A panel of JmjC KDMs was tested by AlphaScreen to determine the selectivity of the compounds (Table S2). […]
(§2) KDM alpha screen selectivity
(§3) Inhibition of histone demethylases was assessed using the histone demethylase AlphaScreen assay (Amplified Luminescence Proximity Homogenous Assay) as previously reported.[4] The basis of this assay for lysine demethylases have been widely described.[5] In brief, the assay was performed in 384-well plate format using white proxiplates (PerkinElmer), and transfer of titrations of compounds (100 nl) was performed using an ECHO 550 acoustic dispenser […]
(§4) Tween- 20) containing the appropriate demethylase enzyme (see Supplementary table 1 for final concentrations) was transferred to each well of a 384-well proxiplate with a Multidrop™ Combi Reagent Dispenser, and the enzymes allowed to pre-incubate for 120 minutes with compound (final concentration of DMSO was 1%). After that time, the enzyme reaction was initiated by addition of 5 µl of a substrate mix consisting of Ketoglutarate (2-OG), Ferrous Ammonium Sulphate (FAS), L-Ascorbic Acid (LAA) and biotinylated peptide substrate (see Supporting table X for final assay concentrations) and the reaction incubated for the indicated time at room temperature. Reaction was stopped by the addition of 5 μl of assay buffer containing EDTA (7.5 mM) and NaCl (400 mM). Streptavidin Donor beads (0.08 mg/ml) and Protein-A conjugated acceptor beads (0.08 mg/ml) (AlphaScreen General IgG detection kit was from Perkin Elmer) were pre-incubated for 1 hour with an antibody to the product methyl mark (Supplementary Table 1) and the presence of biotin-H3-product was detected by addition of 5 µl of the pre-incubated AlphaScreen beads (final concentrations of 0.02 mg/ml with respect to acceptor and donor beads). Detection was allowed to proceed for 2 hour at room temperature and the assay plates read in a BMG Labtech Pherastar FS plate reader (excitation, 680 nm; emission, 570 […]
(§5) IC50(t) = Ki (1 + K ) . ( η . k .t − 1) (1) […]
(§6) Table S4. AlphaScreen assay conditions for the KDM selectivity panel

KDM2A = target: T2, KDM2A (Homo sapiens, UniProt Q9Y2K7); experiment: KDM AlphaScreen selectivity panel, KDM2A; format: biochemical; details: for IC50: AlphaScreen after 120 min pre-incubation, read-out: KDM IC50 2A; for SI over KDM5B, 2A: KDM2A IC50/KDM5B IC50
T2 sequence (Q9Y2K7 1-1162): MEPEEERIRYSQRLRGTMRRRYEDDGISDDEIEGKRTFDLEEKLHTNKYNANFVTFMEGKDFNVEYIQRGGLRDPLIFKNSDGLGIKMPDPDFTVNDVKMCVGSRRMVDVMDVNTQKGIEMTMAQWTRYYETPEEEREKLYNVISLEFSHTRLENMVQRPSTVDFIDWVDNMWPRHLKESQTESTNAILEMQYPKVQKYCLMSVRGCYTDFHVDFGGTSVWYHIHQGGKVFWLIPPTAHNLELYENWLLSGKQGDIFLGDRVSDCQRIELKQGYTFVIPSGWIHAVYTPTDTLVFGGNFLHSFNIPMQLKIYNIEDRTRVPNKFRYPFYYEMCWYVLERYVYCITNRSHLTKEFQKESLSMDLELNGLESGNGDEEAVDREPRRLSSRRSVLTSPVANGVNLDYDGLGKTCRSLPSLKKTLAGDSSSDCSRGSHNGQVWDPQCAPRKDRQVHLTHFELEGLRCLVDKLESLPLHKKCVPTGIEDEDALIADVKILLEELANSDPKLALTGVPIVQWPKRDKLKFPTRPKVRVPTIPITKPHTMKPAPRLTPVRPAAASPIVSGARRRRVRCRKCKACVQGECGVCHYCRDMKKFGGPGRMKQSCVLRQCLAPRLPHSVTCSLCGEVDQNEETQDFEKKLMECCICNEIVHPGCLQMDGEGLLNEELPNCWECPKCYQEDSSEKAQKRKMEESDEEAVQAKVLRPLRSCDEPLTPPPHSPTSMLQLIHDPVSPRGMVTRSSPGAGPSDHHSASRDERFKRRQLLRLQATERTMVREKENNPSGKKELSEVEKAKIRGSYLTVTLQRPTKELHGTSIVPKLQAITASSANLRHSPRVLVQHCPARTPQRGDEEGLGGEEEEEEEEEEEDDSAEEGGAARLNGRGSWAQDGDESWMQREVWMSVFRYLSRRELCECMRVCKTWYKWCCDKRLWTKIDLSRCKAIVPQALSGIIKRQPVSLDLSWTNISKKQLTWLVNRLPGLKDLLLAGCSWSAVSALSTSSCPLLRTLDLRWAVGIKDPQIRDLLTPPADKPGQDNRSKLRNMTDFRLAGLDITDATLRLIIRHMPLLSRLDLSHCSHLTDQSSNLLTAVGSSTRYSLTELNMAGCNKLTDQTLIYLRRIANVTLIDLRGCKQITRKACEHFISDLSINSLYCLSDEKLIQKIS
Description: as §1, §2, §3, §4, §5, §6

Row | Compound | IC50 (KDM4B) [µM] | IC50 (KDM2A) [µM] | SI over KDM5B, 2A (KDM2A) | selectivity over KDM4B (KDM4B) | SI over KDM5B, 4B (KDM4B)
1 | C=CC(=O)Nc1cccc(CN(C)CCc2cnn(-c3nccc4c(=O)[nH]cnc34)c2)c1 [Compound 4] | 1.1 ± 0.1 | 11.3 ± 0.3 | 558 | – | –
2 | CN(CCc1cnn(-c2nccc3c(=O)[nH]cnc23)c1)Cc1cccc(NC(=O)CCl)c1 [Compound 5] | 0.7 ± 0.2 | 4.4 ± 0.1 | 451 | more than 60 fold | 68
3 | CN(C)C/C=C/C(=O)Nc1cccc(CN(C)CCc2cnn(-c3nccc4c(=O)[nH]cnc34)c2)c1 [Compound 6] | 1.9 ± 0.1 | > 33 | – | – | –
4 | CC(C)c1c(-c2cnn(CCNC(=O)CCl)c2)[nH]c2c(C#N)cnn2c1=O [Compound 7] | 4.1 ± 0.2 | > 100 | > 14113 | > 500 fold | 572
5 | C=CC(=O)NCCOc1ccc(-c2[nH]c3c(C#N)cnn3c(=O)c2C(C)C)cc1 [Compound 9] | 6.3 ± 0.6 | > 100 | > 1550 | – | 97
6 | C=CC(=O)N1CCC(n2cc(-c3[nH]c4c(C#N)cnn4c(=O)c3C(C)C)cn2)CC1 [Compound 10] | 14.2 ± 1.1 | > 100 | > 5843 | > 500 fold | 831
7 | CC(C)c1c(-c2cnn(C3CCN(C(=O)CCl)CC3)c2)[nH]c2c(C#N)cnn2c1=O [Compound 11] | 4.6 ± 0.1 | > 60 | > 6671 | – | 513
